Laboratory results as given in PubChem BioAssay (NCI).
“And” between values parts separate entries of the source, which are not always exact repeats. Equal entries are not always repeated.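 Interpolation was linear, between the two tested concentrations surrounding the appropriate level; five concentrations were tested over 48 hours in 96-well plates. The concentration for 50% growth inhibition is given as GI50. Definition used: TGI = concentration required for complete inhibition of growth.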

How the values were obtained:
Assay in all cases: NCI anticancer screen, dose series, 48 h
[1] = tested on: SK-MEL-28 melanoma
[2] = tested on: EKVX NSCLC
[3] = tested on: SK-MEL-2 melanoma
[4] = tested on: HOP-92 NSCLC
[5] = tested on: HS 578T breast
[6] = tested on: SK-MEL-5 melanoma
[7] = tested on: ACHN renal
[8] = tested on: SN12C renal
[9] = tested on: U251 CNS
[10] = tested on: HCT-116 colon

Row | SMILES | GI50 [1] [µM] | TGI [1] | GI50 [2] | TGI [2] | GI50 [3] | TGI [3] | GI50 [4] [µM] | TGI [4] [µM] | GI50 [5] [µM] | TGI [5] [µM] | GI50 [6] | TGI [6] | GI50 [7] [µM] | TGI [7] | GI50 [8] [µM] | TGI [8] | GI50 [9] | TGI [9] | GI50 [10] | TGI [10]
1 | CCCCCCCCCCCCOC1C(CNC(=O)C2OC3OC(C)(C)OC3C2NC(=O)CN2CCN(c3ccc(OC)cc3)CC2)OC2OC(C)(C)OC21 (stereo unspecified) | 5.86 | 23.3 µM | 5.46 µM | 17 µM | 11.7 µM | 23.9 µM | 3.17 | 12.2 | 3.78 | 17 | 4.39 µM | 16.1 µM | 3.59 | 11.2 µM | 3.41 | 11.7 µM | 4.74 µM | 15.8 µM | 3.26 µM | 18.5 µM
2 | COc1cccc(Nc2nc3ccccc3c3occc23)c1 | 14.5 | 29.9 µM | 14.3 µM | 36.9 µM | 13 µM | 30.6 µM | 13 | 31.1 | 9.07 | 29.7 | 6.16 µM | 20.9 µM | 10.8 | 33.6 µM | 12.1 | 35.1 µM | 9.68 µM | 27.1 µM | 15.3 µM | 34.4 µM
3 | CCN(Cc1cccc(Cl)c1)c1ccc(CO)c(Cl)c1 | 14.5 | 28.7 µM | 12.4 µM | 27 µM | 3.86 µM | 20.8 µM | 1.29 | 10.7 | 13.6 | 37.5 | 5.73 µM | 19.9 µM | 11.9 | 25.1 µM | 11.9 | 27.3 µM | 1.09 µM | 14.6 µM | 0.105 µM | 10.3 µM
4 | O=C(c1ccc(Cl)cc1)C(O)c1ccc(Cl)cc1 (stereo unspecified) |  | > 100 µM |  | > 100 µM |  | > 100 µM |  | > 100 |  | > 100 |  | > 100 µM |  | > 100 µM |  | > 100 µM |  | > 100 µM |  | > 100 µM
5 | Cc1cn(Cc2ccc(C34CC5CC(CC(C5)C3)C4)c(O)c2)c(=O)[nH]c1=O | 6.78 | 23.7 µM | 8.21 µM | 29.1 µM | 14.1 µM | 32.2 µM | 14.4 | 29.5 | 8.42 | 33.8 | 4.37 µM | 15.8 µM | 10.8 | 24.3 µM | 12.3 | 25.4 µM | 11.9 µM | 24.8 µM | 10.7 µM | 22.5 µM
6 | O=C(NCC1CCCO1)c1ccc(NC2=C(Cl)C(=O)N(Cc3ccccc3)C2=O)cc1 (stereo unspecified) | 18.6 | 41.1 µM | 20.4 µM | 37 µM | 17.5 µM | 34.7 µM | 6.4 | 21.5 | 22.1 | 65.3 | 14.6 µM | 33.3 µM | 18.7 | 38.8 µM | 0.0654 | 7.32 µM | 18.6 µM | 40.7 µM | 13.3 µM | 26.2 µM
7 | CC[C@@H](C)/C=C(C)/C=C/C(=O)c1c(O)c(-c2ccc(O)cc2)cn(O)c1=O | 0.674 | 19.2 µM | 1.6 µM | 13.1 µM | 0.329 µM | 16.8 µM | 0.137 | 1.86 | 2.83 | 34.5 | 0.201 µM | 0.562 µM | 0.33 | 9.55 µM | 0.391 | 12.3 µM | 0.374 µM | 11.2 µM | 0.395 µM | 13 µM
8 | Nc1nc(/C=C\c2ccccc2)nc(N2CCN(c3ccccc3)CC2)n1 | 30.9 | 79.6 µM | 59.1 µM | > 100 µM | 32.5 µM | 91.7 µM | 21 | 93.3 | 61.8 | > 100 | 21.1 µM | 45 µM | 29.2 | > 100 µM | 18.2 | 38.6 µM | 24.3 µM | 69.2 µM | 13.5 µM | 31.7 µM
9 | O=C1/C(=C/c2ccc(Cl)cc2)CNC/C1=C\c1ccc(Cl)cc1 | 1.3 | 3.74 µM and 2.96 µM | 5.74 µM and 2.29 µM | 21.2 µM and 6.75 µM | 4.92 µM and 14.5 µM | 28.4 µM and 43.2 µM |  | > 26.2 |  | > 41.7 |  | 22.1 µM and 11.3 µM |  | 4.17 µM and 7.08 µM |  | 6.38 µM and 14.3 µM | 0.502 µM | 3.67 µM and 1.78 µM |  | 3.07 µM and 3.85 µM
10 | O=C(CCN1CCCCC1)N1CCc2c([nH]c3ccccc23)C1c1cccnc1 (stereo unspecified) |  | 37.2 µM |  | 98.2 µM |  | 36.9 µM |  | 66 |  | > 100 |  | 41.3 µM |  | > 100 µM |  | > 100 µM |  | > 100 µM |  | > 100 µM
11 | Oc1c(Cl)cc(Cl)c2ccc(Cn3cc(-c4ccc(C(F)(F)F)cc4)nn3)nc12 | 1.78 | 3.76 µM | 5.8 µM | 19.5 µM | 2.67 µM | 7.65 µM | 1.9 | 5.82 | 2.38 | 8.44 | 3.07 µM | 11.4 µM | 1.35 | 2.67 µM | 2.91 | 11.6 µM | 4.43 µM | 17.2 µM | 0.692 µM | 2.57 µM
12 | NS(=O)(=O)c1cc(C(=O)O)c(O)c2ccccc12 |  | > 100 µM |  | > 100 µM |  | > 100 µM |  | > 100 |  | > 100 |  | > 100 µM |  | > 100 µM |  | > 100 µM |  | > 100 µM |  | > 100 µM
13 | COc1cc(C(=O)c2cnc(-c3cccc4[nH]ccc34)[nH]2)cc(OC)c1OC | < 0.01 | > 100 µM |  | > 100 µM | < 0.01 µM | 36.1 µM | 1.5 | 48.1 |  | > 100 | 0.0462 µM and < 0.01 µM | 0.431 µM and 0.275 µM |  | 33.8 µM |  | > 100 µM | 0.0603 µM and < 0.01 µM | 40 µM | 0.0673 µM and < 0.01 µM | > 100 µM
14 | CSc1nc2c(c(=O)n1C)CN(C1CCCCC1)C(=O)C(c1ccccc1)N2 (stereo unspecified) | 17.1 | 83.3 µM | 38.8 µM | > 100 µM | 26.2 µM | > 100 µM | 14.3 | 91.4 | 15.9 | 80.7 | 10.4 µM | 25.7 µM | 12.1 | > 100 µM | 36 | > 100 µM | 41.4 µM | > 100 µM | 36.6 µM | > 100 µM
15 | CC(=O)N1N=C(c2ccc(Nc3nc(Nc4ccc(F)cc4)nc(Nc4ccc(F)cc4)n3)cc2)CC1c1ccc(N(C)C)cc1 (stereo unspecified) | 4.33 | 19.3 µM | 15.7 µM | > 100 µM | 3.61 µM | 16.5 µM |  | 0.488 | 1.6 | 9.02 | 2.83 µM | 13 µM | 6.15 | 18.7 µM | 6.3 | > 100 µM | 12.6 µM | 25.2 µM | 3.6 µM | 14.7 µM
16 | COC(=O)c1oc2c(C(=O)/C=C/c3ccc(OC)cc3)c(OCCN(C)C)ccc2c1C | 7.73 | 20.9 µM | 6.4 µM | 19 µM | 12.4 µM | 28.8 µM | 5.91 | 19.8 | 6.27 | 22.4 | 10.6 µM | 22.4 µM | 5.9 | 19.5 µM | 5.31 | 20.4 µM | 5.72 µM | 19.3 µM | 4.64 µM | 19.7 µM
17 | CO[C@H]1CC(O[C@@H]2/C(C)=C/C[C@@H]3C[C@@H](C[C@]4(CC[C@H](C)[C@@H](C5CCCCC5)O4)O3)OC(=O)[C@@H]3C=C(C)/C(=N/O)[C@H]4OC/C(=C\C=C\[C@@H]2C)[C@]43O)O[C@@H](C)C1O (stereo partly specified) | 0.952 | 1.97 µM | 0.951 µM | 2.64 µM | 1.18 µM | 2.68 µM | 0.648 | 1.57 | 1.22 | 5.52 | 1 µM | 2.29 µM | 0.994 | 2.01 µM | 0.889 | 1.85 µM | 0.759 µM | 1.47 µM | 0.704 µM | 1.4 µM
18 | O=[N+]([O-])c1cc([N+](=O)[O-])c(Nn2c3ccccc3c3ccccc32)c([N+](=O)[O-])c1 | 0.483 | 51.2 µM and 14.9 µM | 0.328 µM | 7.64 µM | 0.267 µM | 0.702 µM |  | 2.81 | 0.366 |  | 0.216 µM | 4.53 µM and 0.506 µM |  | 8.49 µM | 0.322 | 9.42 µM and 6.72 µM | 0.358 µM | > 100 µM | 0.302 µM | 1.18 µM
19 | Cc1cc2c(-c3nc4ccccn4c3N)c(O)c(O)cc2c(O)c1-c1c(C)cc2c(-c3nc4ccccn4c3N)c(O)c(O)cc2c1O | 1.16 | > 25 µM | 0.965 µM | > 25 µM | 0.961 µM | 23.4 µM | 0.65 | 2.29 | 0.797 | > 25 | 0.554 µM | 1.66 µM | 1.63 | > 25 µM | 0.82 | > 25 µM | 0.273 µM | > 25 µM | 0.163 µM | > 25 µM
20 | COC(=O)c1cc2c3ccccc3n3c2c(n1)-c1[nH]c2ccccc2c(=O)c1C3 | > 100 | > 100 µM | 79 µM | > 100 µM | 36.4 µM | > 100 µM | 11.4 | 29.3 | 15.4 | > 100 | > 100 µM | > 100 µM | 33.6 | > 100 µM | > 100 | > 100 µM | 15.2 µM | 52.3 µM | 21 µM | > 100 µM
